Measurements: patent US20240379187A1, “SYSTEMS AND METHODS FOR OMICS-BASED ANALYSIS OF GENE EXPRESSION” (priority 2023, published 2024)

Experiments:
[1] = system: C. difficile; assay: CAT-GxD re-analysis of public C. difficile gene expression datasets (heatmap, PCA, STRING network, KEGG PTS pathway overlay) after DCA or succinate exposure; format: cell-based, Clostridioides difficile; conditions: for most of the Glc family phosphorylation and L-ascorbate phosphorylation (KEGG PTS pathway): unchanged in Δsig54
Excerpt: Typically, specific gene expression datasets and protein quantitation datasets for the selected target organism are collected and made available. In an exemplary form, C. difficile-specific gene expression datasets and protein quantitation datasets were collected from GEO database and ProteomeXchange databases, respectively. An SQL database was generated using RSQlite (version 2.3.4) (25) to incorporate the 56 nonredundant GEO transcriptomics datasets and 8 quantitative proteomic datasets. GEO subseries datasets already available in their respective superseries dataset were excluded. Quantitative total proteomic datasets were included; those focused on post-translational modification studies were excluded. To integrate and normalize the datasets, gene IDs were matched to the Ensembl stable IDs of the widely accepted C. difficile 630 reference strain using BLASTp, using protein identity and gene position comparisons and given the NCBI format CD630. Pre-computed log2 ratios without any gene duplication were imported as is. Studies with replicate log2 ratios assigned for a gene ID (common in microarray experiments due to replicate spots) were solved by computing the median log2 ratio. Two-channel microarray experiments with duplicate ratios assigned to a gene were solved by computing the average of the complementary ratios then log2 transformed. Reads Per Kilobase Million (RPKM) of raw RNASeq data were computed. For datasets without any computed ratios, log2 ratios were calculated for each treatment vs. control, and median normalization was performed. Gene classifications (described in Input and Data Filtering) were compiled to provide a comprehensive and robust search.
To glean additional insight into the interactions between the remaining 26 genes, the analysis was transitioned to the STRING database by clicking on the STRING icon at the top left of the page (expression information, however, will not ‘carry over’). […] The least number of nodes with the higher network association scores were selected to bridge the clusters. […] Next, the 5 bridging nodes and rpoN/sigL/sig54 were added to the 26 gene set and re-entered in the CAT-GXD's ‘Search’ bar. […] In order to link the separate networks, the 26 genes were sent to the STRING database by clicking on the STRING icon.
In the pathway tab in CAT-GxD, gene expression data for specific conditions can be overlaid on selected KEGG pathways.

[2] = system: C. difficile; conditions: cited from earlier work
[3] = system: C. difficile; conditions: cited from earlier work; remark: listed apart in the source
[4] = C. difficile exposed to 240 μM DCA for 48 hours
[5] = DCA exposure, compared with succinate exposure
[6] = C. difficile exposed to 80 mM succinate for 24 hours
[7] = C. difficile treated with 80 mM succinate for 24 hours

| SMILES | SigL/Sig54/RpoN expression [1, 4] | expression of central bridging node pheA [1, 4] | genes of cluster [2] downregulated [1, 4] | number of the 27 Δsig54 downregulated genes also downregulated [1, 4] | bridging nodes downregulated ([1]; C. difficile exposed to 240 μM DCA for 48 hours, bridging nodes ptsH, pheA, pfo, CD3092, CD3640) | expression of cluster [2] bridging node ptsH ([1]; DCA exposure (240 μM, 48 hours)) | mannitol (mtlF) phosphorylation (KEGG PTS pathway) [1, 5] | sorbitol phosphorylation (KEGG PTS pathway) [1, 5] | most of the Glc family phosphorylation and L-ascorbate phosphorylation (KEGG PTS pathway) ([1]; DCA ratio (240 μM, 48 hrs)) | biofilm formation in C. difficile [2] | expression of bridging node pfo of clusters [1] and [3] [1, 6] | expression of central bridging node pheA [1, 6] | expression of cluster [2] bridging node ptsH [1, 6] | SigL expression [1, 7] | genes (clusters [1] and [3]) displaying contrasting expression patterns relative to Δsig54 [1, 7] | genes (of the 10 of cluster [2]) with similar downregulation patterns as with Sig54 loss [1, 7] | cellobiose, fructoselysine and sorbitol phosphorylation (KEGG PTS pathway) ([1]; succinate exposure, compared with DCA exposure) | most of the Glc family phosphorylation and L-ascorbate phosphorylation (KEGG PTS pathway) ([1]; succinate ratio (24 hrs biofilm)) | biofilm thickness compared with DCA-induced biofilm ([2]; succinate versus DCA) | mtlF expression in succinate induced biofilms [3] |
| --- | --- | --- | --- | --- | --- | --- | --- | --- | --- | --- | --- | --- | --- | --- | --- | --- | --- | --- | --- | --- |
| C[C@H](CCC(=O)O)[C@H]1CC[C@H]2[C@@H]3CC[C@@H]4C[C@H](O)CC[C@]4(C)[C@H]3C[C@H](O)[C@]12C [DCA] | downregulated | upregulated | 3 of 10 | 19 of the 27 | 4 of the 5 | downregulated | increased | decreased | downregulated | induce biofilm formation | – | – | – | – | – | – | – | – | – | – |
| O=C(O)CCC(=O)O [succinate] | – | – | – | – | – | – | – | – | – | induce biofilm formation | upregulated | upregulated | downregulated | upregulation | 13 of 27 | 7 of the 10 | increased | downregulated | significantly thicker biofilm | downregulation |
